Data as given in PubChem BioAssay AID1259407 (Chemical Carcinogenesis Research Information System (CCRIS), 2018).
Calls of active or inactive are those of the source. No rule for the calls is given here.

System: CCRIS mutagenicity, Ames/micronucleus/aberration tests
Experiment: CCRIS mutagenicity studies
[1] = Test System: AMES SALMONELLA TYPHIMURIUM, Strain/Indicator: TA100, Metabolic Activation: NONE, Method: STANDARD PLATE
[2] = Test System: AMES SALMONELLA TYPHIMURIUM, Strain/Indicator: TA98, Metabolic Activation: NONE, Method: PREINCUBATION
[3] = Test System: AMES SALMONELLA TYPHIMURIUM, Strain/Indicator: TA100, Metabolic Activation: NONE, Method: PREINCUBATION
[4] = Test System: AMES SALMONELLA TYPHIMURIUM, Strain/Indicator: TA1535, Metabolic Activation: NONE, Method: PREINCUBATION

Q: What does the source list for `CCN(CC)c1ccc(N=Nc2ccccc2)cc1`?
A: mutagenic call (Test System: AMES SALMONELLA TYPHIMURIUM, Strain/Indicator: TA98, Metabolic Activation: RAT, LIVER, MICROSOMES, 4-DIETHYLAMINOAZOBENZENE, Method: PREINCUBATION): inactive; negative; mutagenic call (Test System: AMES SALMONELLA TYPHIMURIUM, Strain/Indicator: TA98, Metabolic Activation: RAT, LIVER, MICROSOMES, AROCLOR 1254, Method: PREINCUBATION): inactive; negative; mutagenic call (Test System: AMES SALMONELLA TYPHIMURIUM, Strain/Indicator: TA98, Metabolic Activation: RAT, LIVER, MICROSOMES, Method: PREINCUBATION): inactive; negative

Q: How did the mutagenic call (Test System: AMES SALMONELLA TYPHIMURIUM, Strain/Indicator: TA98, Metabolic Activation: NONE, Method: STANDARD PLATE) turn out when `CC(=O)O[C@H]1[C@@]2(O)CC(C)(C)CC2=C(C=O)[C@@]2(C=O)C[C@@]12C` was run?
A: inactive; negative

Q: What about the mutagenic call [1] of the same compound?
A: active; positive

Q: And the mutagenic call (Test System: AMES SALMONELLA TYPHIMURIUM, Strain/Indicator: TA2637, Metabolic Activation: NONE, Method: STANDARD PLATE)?
A: inactive; negative

Q: With `CC(Br)CBr` (stereo not drawn) as the compound, how does the mutagenic call (Test System: AMES SALMONELLA TYPHIMURIUM, Strain/Indicator: TA97, Metabolic Activation: NONE, Method: STANDARD PLATE) read?
A: inactive; negative

Q: And the mutagenic call (Test System: AMES SALMONELLA TYPHIMURIUM, Strain/Indicator: TA97, Metabolic Activation: RAT, LIVER, S-9, PCB, Method: STANDARD PLATE)?
A: inactive; negative

Q: And the mutagenic call [2]?
A: inactive; negative

Q: And the mutagenic call (Test System: AMES SALMONELLA TYPHIMURIUM, Strain/Indicator: TA98, Metabolic Activation: RAT LIVER S-9, PHENOBARBITAL AND BETA-NAPHTHOFLAVONE, Method: PREINCUBATION)?
A: inactive; negative

Q: And the mutagenic call [3]?
A: inactive; negative

Q: And the mutagenic call [1]?
A: inactive; negative

Q: And the mutagenic call (Test System: AMES SALMONELLA TYPHIMURIUM, Strain/Indicator: TA100, Metabolic Activation: RAT LIVER S-9, PHENOBARBITAL AND BETA-NAPHTHOFLAVONE, Method: PREINCUBATION)?
A: inactive; negative

Q: What about the mutagenic call (Test System: AMES SALMONELLA TYPHIMURIUM, Strain/Indicator: TA100, Metabolic Activation: RAT, LIVER, MICROSOMES, PHENOBARBITAL, NADPH COFACTORS, Method: STANDARD PLATE) of the same compound?
A: active; positive

Q: What about the mutagenic call (Test System: AMES SALMONELLA TYPHIMURIUM, Strain/Indicator: TA100, Metabolic Activation: RAT, LIVER, MICROSOMES, PHENOBARBITAL, Method: STANDARD PLATE) of the same compound?
A: active; positive

Q: And the mutagenic call (Test System: AMES SALMONELLA TYPHIMURIUM, Strain/Indicator: TA100, Metabolic Activation: RAT, LIVER, S-9, PCB, Method: STANDARD PLATE)?
A: inactive; negative

Q: And the mutagenic call (Test System: AMES SALMONELLA TYPHIMURIUM, Strain/Indicator: TA1534, Metabolic Activation: HOST-MEDIATED, Method: IN VIVO)?
A: inactive; negative

Q: What about the mutagenic call [4] of the same compound?
A: inactive; negative

Q: What about the mutagenic call (Test System: AMES SALMONELLA TYPHIMURIUM, Strain/Indicator: TA1537, Metabolic Activation: NONE, Method: PREINCUBATION) of the same compound?
A: inactive; negative

Q: And the mutagenic call (Test System: AMES SALMONELLA TYPHIMURIUM, Strain/Indicator: TA1537, Metabolic Activation: RAT LIVER S-9, PHENOBARBITAL AND BETA-NAPHTHOFLAVONE, Method: PREINCUBATION)?
A: inactive; negative

Q: And the mutagenic call (Test System: AMES SALMONELLA TYPHIMURIUM, Strain/Indicator: TA1950, Metabolic Activation: HOST-MEDIATED, Method: IN VIVO)?
A: inactive; negative

Q: And the mutagenic call (Test System: E.COLI, Strain/Indicator: WP2UVRA, Metabolic Activation: NONE, Method: PREINCUBATION)?
A: inactive; negative

Q: What about the mutagenic call (Test System: E.COLI, Strain/Indicator: WP2UVRA, Metabolic Activation: RAT LIVER S-9, PHENOBARBITAL AND BETA-NAPHTHOFLAVONE, Method: PREINCUBATION) of the same compound?
A: inactive; negative

Q: What about the mutagenic call (Test System: UDS RAT HEPATOCYTES, Strain/Indicator: THY INCORP, Metabolic Activation: NONE) of the same compound?
A: active; positive

Q: `CCCCCCC(C)OC(=O)C[S][Sn]([CH2]CCC)([S]CC(=O)OC(C)CCCCCC)[S]CC(=O)OC(C)CCCCCC` (stereo not drawn) was tested. Which mutagenic call (Test System: AMES SALMONELLA TYPHIMURIUM, Strain/Indicator: TA97, Metabolic Activation: HAMSTER, LIVER, S-9, AROCLOR 1254 (10 OR 30%), Method: PREINCUBATION) did it give?
A: inactive; negative

Q: And the mutagenic call (Test System: AMES SALMONELLA TYPHIMURIUM, Strain/Indicator: TA97, Metabolic Activation: NONE, Method: PREINCUBATION)?
A: inactive; negative

Q: And the mutagenic call (Test System: AMES SALMONELLA TYPHIMURIUM, Strain/Indicator: TA97, Metabolic Activation: RAT, LIVER, S-9, AROCLOR 1254 (10 OR 30%), Method: PREINCUBATION)?
A: inactive; negative

Q: And the mutagenic call (Test System: AMES SALMONELLA TYPHIMURIUM, Strain/Indicator: TA98, Metabolic Activation: HAMSTER, LIVER, S-9, AROCLOR 1254 (10 OR 30%), Method: PREINCUBATION)?
A: inactive; negative

Q: And the mutagenic call [2]?
A: inactive; negative

Q: And the mutagenic call (Test System: AMES SALMONELLA TYPHIMURIUM, Strain/Indicator: TA98, Metabolic Activation: RAT, LIVER, S-9, AROCLOR 1254 (10 OR 30%), Method: PREINCUBATION)?
A: inactive; negative

Q: And the mutagenic call (Test System: AMES SALMONELLA TYPHIMURIUM, Strain/Indicator: TA100, Metabolic Activation: HAMSTER, LIVER, S-9, AROCLOR 1254 (10 OR 30%), Method: PREINCUBATION)?
A: inactive; negative

Q: And the mutagenic call [3]?
A: inactive; negative

Q: And the mutagenic call (Test System: AMES SALMONELLA TYPHIMURIUM, Strain/Indicator: TA100, Metabolic Activation: RAT, LIVER, S-9, AROCLOR 1254 (10 OR 30%), Method: PREINCUBATION)?
A: inactive; negative

Q: What about the mutagenic call (Test System: AMES SALMONELLA TYPHIMURIUM, Strain/Indicator: TA1535, Metabolic Activation: HAMSTER, LIVER, S-9, AROCLOR 1254 (10 OR 30%), Method: PREINCUBATION) of the same compound?
A: inactive; negative

Q: What about the mutagenic call [4] of the same compound?
A: inactive; negative

Q: And the mutagenic call (Test System: AMES SALMONELLA TYPHIMURIUM, Strain/Indicator: TA1535, Metabolic Activation: RAT, LIVER, S-9, AROCLOR 1254 (10 OR 30%), Method: PREINCUBATION)?
A: inactive; negative

Q: Which results are given for `CC(Br)C(=O)Nc1ccccc1` (stereo not drawn)?
A: mutagenic call (Test System: AMES SALMONELLA TYPHIMURIUM, Strain/Indicator: TA100, Metabolic Activation: MOUSE, LIVER, S-9, AROCLOR 1254, Method: STANDARD PLATE): active; positive; mutagenic call [1]: inactive; negative
